For the experiment, the target named is T1, CCR2 (Homo sapiens, UniProt P41597).
T1 construct: (leukophoresis pack); host or cells: human peripheral blood mononuclear cells (PBMCs) from a normal human leukophoresis pack
Kind of experiment: hCCR2 (125-I hMCP-1) small molecule binding assay on human PBMCs. The following applies: 125I-MCP-1, human PBMCs. From the text:
The CCR2 antagonist activity of compounds of the invention can be reported as the inhibitor concentration required for 50% inhibition (IC50 values) of specific binding in receptor binding assays using 125I-labeled MCP-1, as ligand, and Peripheral Blood Mononuclear Cells (PBMCs) prepared from normal human whole blood via density gradient centrifugation. Specific binding is defined as the total binding (e.g., total cpm on filters) minus the non-specific binding. Non-specific binding is defined as the amount of cpm still defected in the presence of excess unlabeled competitor (e.g., MCP-1),
Human PBMCs were used to test compounds of the invention in a binding assay. For example, 200,000 to 500,000 cells were incubated with 0.1 to 0.2 nM 125I-labeled MCP-1, with or without unlabeled competitor (10 nM MCP-1) or various concentrations of compounds to be tested. 125I-labeled MCP-1, were prepared by suitable methods or purchased from commercial vendors (Perkin Elmer, Boston Mass.). The binding reactions were performed in 50 to 250 μL of a binding buffer consisting of […] pH 7.2, and 0.1% BSA (bovine serum albumin), for 30 minutes at room temperature. The binding reactions were terminated by harvesting the membranes by rapid filtration through glass fiber filters (Perkin Elmer) which was presoaked in 0.3% polyethyleneimine or Phosphate Buffered Saline (PBS). The filters were rinsed with approximately 600 μL of binding buffer containing, 0.5 M NaCl or PBS, then dried, and the amount of bound radioactivity was determined by counting on a Gamma Counter (Perkin Elmer).
More specifically, the following assay may be employed to determine IC50 values for the compounds of the present invention.
hCCR2 (125-I hMCP-1) Small Molecule Binding Assay
Normal human leukophoresis pack contents, available from Biological Specialty Corporation, Colmar, Pa., is diluted 1:1 with PBS, divided into 50 ml conical tubes (preferably less than 40 mls per tube), and underlayed with 10 mls of Ficoll-Paque PLUS (GE Healthcare 17-1440-02). The tubes are centrifuged at 2800 rpm in a clinical centrifuge at room temperature for 30 mins, with no brake. The plasma layer is suctioned, and the buffycoat layer is collected. The collected buffycoat layer is washed twice with 50 mls PBS, and centrifuged at 1400 rpm with brake. The cells are counted. The cells are then diluted to 1×10^7 cells per ml in binding buffer.
96 well plates (such as, for example, Millipore MultiScreen96 plates) are pre-wet with about 100 μl binding buffer (RPMI+0.1% BSA+20 mM HEPES), and blotted just prior to compound addition.
5 μl of 50 μM test compounds in 100% DMSO are dotted onto U-bottom polypropylene 96-well plates.
245 μl per well of Binding Buffer is added to each well for 1 μM compound concentration in 2% DMSO.
50 μl of 1 μM compound is transferred to pre-wetted Millipore plates. 50 μl per well of 1×10E7 cells per ml of freshly prepared human PBMCs are added.
The samples are pre-incubated at room temperature for 30 minutes or 1 hour.
50 μl of 450 pM 125-I-hMCP-1 (Perkin-Elmer/NEN cat#NEX332025UC) is added for a final concentration 125-I-hMCP-1 of 150 pM per well.
The final test compound concentration is 0.333 uM in 150 μl total volume with 0.67% DMSO in all wells. Controls for this assay consist of 0% inhibition and 100% inhibition with 1 uM hMCP-1 (saturating conditions). All wells are run in duplicate. Controls may be in replicates of eight.
The samples are incubated at room temperature for 30 minutes.
The buffer is suctioned through the Millipore plates. The plates are washed three times with Wash Buffer (PRMI+0.1% BSA+20 mM HEPES+ 0.4 M NaC).
The plate underdrain is removed. The plate filters are allowed to dry. The filters are then punched out into plastic tubes.
Finally, the sample is counted an a Gamma Counter.
All IC50 plates were repeated for an n=2.
The following table summarizes the IC50 values identified through the described assay.

[1] abbreviates: 30 min preincubation, read-out: IC50 (nM) 30 min preinc.
[2] abbreviates: 1 hr preincubation, read-out: IC50 (nM) 1 hr preinc.

Read-outs that look alike come from different tables or passages of the source.

T1 sequence (P41597 whole entry): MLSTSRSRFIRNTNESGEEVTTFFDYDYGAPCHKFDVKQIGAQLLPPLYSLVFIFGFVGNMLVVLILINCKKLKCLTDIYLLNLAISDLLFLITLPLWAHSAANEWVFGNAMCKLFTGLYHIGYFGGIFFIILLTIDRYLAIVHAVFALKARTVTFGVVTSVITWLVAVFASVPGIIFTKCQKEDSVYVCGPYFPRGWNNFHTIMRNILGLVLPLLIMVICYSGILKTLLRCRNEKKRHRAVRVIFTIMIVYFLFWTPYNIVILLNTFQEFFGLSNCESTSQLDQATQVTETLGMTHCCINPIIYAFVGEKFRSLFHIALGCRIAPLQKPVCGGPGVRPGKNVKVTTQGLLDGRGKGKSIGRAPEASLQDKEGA

What is called IC50 is the concentration that inhibits the measured activity by half. Consider `CO[C@@H]1COCC[C@@H]1N[C@@H]1CC[C@@](C(=O)N2C[C@@H]3C[C@H]2CN3c2ccnc(C(F)(F)F)c2)(C(C)C)C1` [Example 17, 1,5-anhydro-2,3-dideoxy-3-{[(1R,3S)-3-isopropyl-3-({(1S,4S)-5-[2-(trifluoromethyl)pyridin-4-yl]-2,5-diazabicyclo[2.2.1]hept-2-yl}carbonyl)cyclopentyl]amino}-4-O-methyl-D-erythro-pentitol], for which the IC50 is, setting by setting: under setting [1], 13.7 nM; under setting [2], 5.8 nM. For `CO[C@@H]1COCC[C@@H]1N[C@@H]1CC[C@@](C(=O)N2C[C@@H]3C[C@H]2CN3c2cc(C(F)(F)F)cnn2)(C(C)C)C1` [Example 18, 1,5-anhydro-2,3-dideoxy-3-{[(1R,3S)-3-isopropyl-3-({(1S,4S)-5-[5-(trifluoromethyl)pyridazin-3-yl]-2,5-diazabicyclo[2.2.1]hept-2-yl}carbonyl)cyclopentyl]amino}-4-O-methyl-D-erythro-pentitol] the same measures were 37.6 nM and 8.5 nM. For `CO[C@@H]1COCC[C@@H]1N[C@@H]1CC[C@@](C(=O)N2C[C@@H]3C[C@H]2CN3c2cc(C(F)(F)F)nc(C(F)(F)F)c2)(C(C)C)C1` [Example 19, 1,5-anhydro-3-{[(1R,3S)-3-isopropyl-3-({(1S,4S)-5-[2,6-bis(trifluoromethyl)pyridin-4-yl]-2,5-diazabicyclo[2.2.1]hept-2-yl}carbonyl)-3-isopropylcyclopentyl]amino}-2,3-dideoxy-4-O-methyl-D-erythro-pentitol] the same measures were 20.4 nM and 6.35 nM. As for `CO[C@@H]1COCC[C@@H]1N[C@@H]1CC[C@@](C(=O)N2C[C@@H]3C[C@H]2CN3c2nccc(C(F)(F)F)c2F)(C(C)C)C1` [Example 20, 1,5-anhydro-2,3-dideoxy-3-{[(1R,3S)-3-({(1S,4S)-5-[3-fluoro-4-(trifluoromethyl)pyridin-2-yl]-2,5-diazabicyclo[2.2.1]hept-2-yl}carbonyl)-3-isopropylcyclopentyl]amino}-4-O-methyl-D-erythro-pentitol], under setting [1], the IC50 was determined as 8.59 nM.

Turning to `CO[C@@H]1COCC[C@@H]1N[C@@H]1CC[C@@](C(=O)N2C[C@@H]3C[C@H]2CN3c2cc(C(F)(F)F)cc(C)n2)(C(C)C)C1` [Example 21, 1,5-anhydro-2,3-dideoxy-3-{[(1R,3S)-3-isopropyl-3-({(1S,4S)-5-[6-methyl-4-(trifluoromethyl)pyridin-2-yl]-2,5-diazabicyclo[2.2.1]hept-2-yl}carbonyl)cyclopentyl]amino}-4-O-methyl-D-erythro-pentitol], under setting [2], the IC50 was determined as 3.1 nM.

Regarding `CO[C@@H]1COCC[C@@H]1N[C@@H]1CC[C@@](C(=O)N2C[C@@H]3C[C@H]2CN3c2cccc(C(F)(F)F)c2)(C(C)C)C1` [Example 22, 1,5-anhydro-2,3-dideoxy-3-{[(1R,3S)-3-isopropyl-3-({(1S,4S)-5-[3-(trifluoromethyl)phenyl]-2,5-diazabicyclo[2.2.1]hept-2-yl}carbonyl)cyclopentyl]amino}-4-O-methyl-D-erythro-pentitol], the IC50 under setting [2] was 1.1 nM. Same read-out and setting: under `CO[C@@H]1COCC[C@@H]1N[C@@H]1CC[C@@](C(=O)N2C[C@@H]3C[C@H]2CN3c2cc(F)cc(C(F)(F)F)c2)(C(C)C)C1` [Example 23, 1,5-anhydro-2,3-dideoxy-3-{[(1R,3S)-3-({(1S,4S)-5-[3-fluoro-5-(trifluoromethyl)phenyl]-2,5-diazabicyclo[2.2.1]hept-2-yl}carbonyl)-3-isopropylcyclopentyl]amino}-4-O-methyl-D-erythro-pentitol] stands 0.94 nM. As for `CO[C@@H]1COCC[C@@H]1N[C@@H]1CC[C@](CC(F)F)(C(=O)N2C[C@@H]3C[C@H]2CN3c2cc(C(F)(F)F)ncn2)C1` [Example 24, 1,5-anhydro-2,3-dideoxy-3-{[(1R,3S)-3-(2,2-difluoroethyl)-3-({(1S,4S)-5-[6-(trifluoromethyl)pyrimidin-4-yl]-2,5-diazabicyclo[2.2.1]hept-2-yl}carbonyl)cyclopentyl]amino}-4-O-methyl-D-erythro-pentitol], the IC50 was 79.7 nM under setting [1] and 8.87 nM under setting [2].

The record behind these values is patent publication US8946413B2 (Pfizer Inc., priority 2008, dated 2015).
